Measured values from patent US8410141B2, “Insecticidal arylpyrrolines” (Bayer Cropscience AG, priority 2009, dated 2013).

Columns and labels:
Type in all cases: in vivo
[1] = tested on: mustard beetle larvae (Phaedon cochleariae); assay: Phaedon cochleariae test, PHAECO spray application; settings: 100 g/ha; Chinese cabbage leaf-disks sprayed; after 7 days
Experimental: Solvent: 78.0 parts by weight of acetone
• 1.5 parts by weight of dimethylformamide Emulsifier: 0.5 parts by weight of alkylaryl polyglycolether
(§1) To produce a suitable preparation of active compound, 1 part by weight of active compound is mixed with the stated amount of solvent and emulsifier, and the concentrate is diluted with emulsifier-containing water to the desired concentration.
Chinese cabbage (Brassica pekinesis) leaf-disks are sprayed with a preparation of the active ingredient of the desired concentration. Once dry, the leaf disks are infested with mustard beetle larvae (Phaedon cochleariae).
After 7 days mortality in % is determined. 100% means that all beetle larvae have been killed and 0% means that none of the beetle larvae have been killed.

[2] = tested on: fall armyworm larvae (Spodoptera frugiperda); assay: Spodoptera frugiperda test, SPODFR spray application; settings: 100 g/ha; maize leaf sections sprayed; after 7 days
From the text: (§2) Solvent: 78.0 parts by weight acetone
(§3) • 1.5 parts by weight dimethylformamide Emulsifier: 0.5 parts by weight alkylarylpolyglycolether
To produce a suitable preparation of the active compound, 1 part by weight of active compound is mixed with the stated amount of solvent and emulsifier, and the concentrate is dilutes with emulsifier-containing water to the desired concentration. Maize (Zea mais) leaf sections are sprayed with a preparation of the active ingredient of the desired concentration. Once dry, the leaf sections are infested with fall armyworm larvae (Spodoptera frugiperda).
After 7 days mortality in % is determined. 100% means that all caterpillars have been killed and 0% means that none of the caterpillars have been killed.

[3] = tested on: two spotted spidermite (Tetranychus urticae), OP-resistant; assay: Tetranychus urticae test, OP-resistant (TETRUR spray application); settings: 100 g/ha; French beans sprayed; all stages; after 6 days
Experimental: as §2, §3
as §1, with “concentration. French beans (Phaseolus vulgaris) which are heavily infested with all stages of the two spotted spidermite (Tetranychus urticae), are sprayed with a preparation of the active ingredient at the desired concentration.” for “concentration.”
After 6 days mortality in % is determined. 100% means that all spider mites have been killed and 0% means that none of the spider mites have been killed.

[4] = tested on: green peach aphid (Myzus persicae); assay: Myzus test, oral (MYZUPE O); settings: 100 g/ha; aphids suck on preparation; after 5 days
Experimental: Solvent: 80 parts by weight acetone
To produce a suitable preparation of active compound, 1 part by weight of active compound ist mixed with the stated amount of solvent and emulsifier, and the concentrate is diluted with emulsifier-containing water to the desired concentration. Containers are infested with a mixed population of the green peach aphid (Myzus persicae), the aphids suck on a preparation of the active compound at the desired concentration.
After 5 days mortality in % is determined. 100% means that all aphids have been killed; 0% means that none of the aphids have been killed.

CN(C)c1c(Cl)cc(C2(C(F)(F)F)CN=C(c3ccc(-n4cncn4)c(C#N)c3)C2)cc1Cl (stereo not shown) [1-3]
mortality [1]: 100% | mortality [2]: 83% | mortality [3]: 100% | mortality [4]: 100%
